Source: ChEMBL document CHEMBL1201862, “PubChem BioAssay data set” (2004)
Active and inactive are the calls of the source.

Key:
[1] = target: FAD-linked sulfhydryl oxidase ALR (Homo sapiens, UniProt P55789); assay: ALR-catalysed DTT oxidation blockers – biochemical, H2O2 detection, luminescence, cherry-pick, dose response (AID 493248)
[2] = HIV-1 AD8 envelope cell-cell fusion blockers – cherry-pick, dose response (AID 652062); format: functional, cell-based;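 also: luciferase signal from cell-cell fusion driven by HIV-1 clade B AD8 Env; potency is for inhibitors of fusion seen as a drop in luminescence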
[3] = microbe, parasite or virus in culture; format: functional; conditions: Mycobacterium tuberculosis
[4] = target: T1, Cytochrome P450 1A2 (Homo sapiens, UniProt P05177);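 also: PubChem cytochrome P450 panel assay, CYP1A2 panel member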
T1 sequence (P05177 whole entry): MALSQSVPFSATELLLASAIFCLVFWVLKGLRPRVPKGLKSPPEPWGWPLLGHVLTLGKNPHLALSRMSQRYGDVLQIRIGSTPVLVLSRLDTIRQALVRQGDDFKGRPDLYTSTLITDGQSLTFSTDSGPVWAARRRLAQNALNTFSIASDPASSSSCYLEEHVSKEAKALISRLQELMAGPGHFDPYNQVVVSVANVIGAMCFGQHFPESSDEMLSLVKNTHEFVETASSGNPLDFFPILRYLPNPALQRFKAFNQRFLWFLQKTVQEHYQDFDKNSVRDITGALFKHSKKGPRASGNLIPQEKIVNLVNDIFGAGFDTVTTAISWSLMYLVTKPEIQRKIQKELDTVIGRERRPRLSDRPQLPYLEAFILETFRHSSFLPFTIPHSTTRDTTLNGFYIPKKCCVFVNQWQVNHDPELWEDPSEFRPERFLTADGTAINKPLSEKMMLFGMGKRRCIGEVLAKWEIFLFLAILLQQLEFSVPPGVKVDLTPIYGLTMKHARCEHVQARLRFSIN

[5] = target: T2, RNA-binding protein pos-1 (Caenorhabditis elegans, UniProt G5EF15); assay: disruptors of C. elegans POS-1 RNA interaction – biochemical, fluorescence polarization, dose response (AID 1964);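 also: purified POS-1 fused to maltose binding protein made in E. coli; potency of compounds blocking POS-1 binding to fluorescent RNA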
T2 sequence (G5EF15 whole entry): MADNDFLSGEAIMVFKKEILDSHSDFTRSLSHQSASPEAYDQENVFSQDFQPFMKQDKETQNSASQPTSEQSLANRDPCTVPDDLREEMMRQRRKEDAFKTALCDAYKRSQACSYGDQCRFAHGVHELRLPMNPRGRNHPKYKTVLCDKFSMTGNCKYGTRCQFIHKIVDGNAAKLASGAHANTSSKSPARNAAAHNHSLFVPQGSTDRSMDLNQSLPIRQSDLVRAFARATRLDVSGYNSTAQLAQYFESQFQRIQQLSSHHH

[6] = target: T3, Zinc finger protein mex-5 (Caenorhabditis elegans, UniProt Q9XUB2); assay: potency of MEX-5 RNA-binding blockers – biochemical, C. elegans, fluorescence polarization, dose response (AID 1960)
T3 sequence (Q9XUB2 whole entry): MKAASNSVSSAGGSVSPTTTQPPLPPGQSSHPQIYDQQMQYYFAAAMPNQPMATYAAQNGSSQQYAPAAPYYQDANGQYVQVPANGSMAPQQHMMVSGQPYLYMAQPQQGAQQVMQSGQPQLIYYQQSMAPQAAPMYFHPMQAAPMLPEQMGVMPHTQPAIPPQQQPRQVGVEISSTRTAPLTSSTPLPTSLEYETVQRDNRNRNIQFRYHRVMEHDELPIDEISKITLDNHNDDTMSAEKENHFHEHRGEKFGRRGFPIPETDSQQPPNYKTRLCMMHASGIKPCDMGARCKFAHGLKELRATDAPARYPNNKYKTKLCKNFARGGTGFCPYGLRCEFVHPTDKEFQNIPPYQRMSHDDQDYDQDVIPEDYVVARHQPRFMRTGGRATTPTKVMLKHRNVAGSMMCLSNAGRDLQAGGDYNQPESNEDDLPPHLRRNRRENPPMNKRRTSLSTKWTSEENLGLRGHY

[7] = target: T4, Polyadenylate-binding protein 1 (Homo sapiens, UniProt P11940); assay: MLLE binding blockers, Cy5 peptide tracer – biochemical, fluorescence polarization, Cy5-PAM2 peptide, secondary, miRNA deadenylation inhibitor project, dose response (AID 602260); format: functional; conditions: read-out: IC50_Mean
[8] = target: T4, Polyadenylate-binding protein 1; assay: MLLE domain peptide-binding blockers, IC50 – biochemical, fluorescence polarization, FITC-PAM2 peptide, dose response (AID 602259); format: functional; conditions: read-out: IC50_Mean
[9] = target: Cytochrome P450 2D6 (Homo sapiens, UniProt P10635);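 also: CYP2D6 member of a cytochrome P450 panel assay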
[10] = target: Cytochrome P450 2C9 (Homo sapiens, UniProt P11712)
[11] = cells; format: functional
[12] = viability of uninfected HEp-2 cells – cell-based, HTS, cytotoxicity control for RSV inhibitor project, dose response (AID 2410); format: functional; conditions: human respiratory syncytial virus
[13] = target: Cytochrome P450 2C19 (Homo sapiens, UniProt P33261); assay: Cytochrome panel assay with activity outcomes. Panel member name: p450-cyp2c19 Compounds with AC50 equal or less than 10 uM are considered active; format: functional
[14] = Trypanosoma cruzi growth suppression in host cells – NIH3T3 host cells, beta-gal luminescence, confirmation (AID 2044); format: functional, cell-based;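 also: intracellular parasites grown in NIH/3T3 mouse fibroblasts as host cells; luminescent beta-galactosidase reporter signal from transgenic T. cruzi replicating inside host cells; inhibitors lower the luminescence signal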
[15] = NIH3T3 cell viability loss – ATP luminescence, mouse fibroblasts, counter-screen, dose response (AID 2010); format: functional, cell-based;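 also: cells exposed to compound for about 90 hours before reading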
[16] = target: T5, Heat shock factor protein 1 (Mus musculus, UniProt P38532); assay: enhancement of HSF1-driven luciferase signal – cell-based, NIH3T3, luminescence, dose retest, confirmation (AID 435004); format: functional;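 also: stress induced by proteasome inhibitor MG132 added 30 min after compound; luciferase reporter driven by HSF1 response element in NIH3T3 cells; actives raise luminescence as potentiators of the MG132 stress response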
T5 sequence (P38532 whole entry): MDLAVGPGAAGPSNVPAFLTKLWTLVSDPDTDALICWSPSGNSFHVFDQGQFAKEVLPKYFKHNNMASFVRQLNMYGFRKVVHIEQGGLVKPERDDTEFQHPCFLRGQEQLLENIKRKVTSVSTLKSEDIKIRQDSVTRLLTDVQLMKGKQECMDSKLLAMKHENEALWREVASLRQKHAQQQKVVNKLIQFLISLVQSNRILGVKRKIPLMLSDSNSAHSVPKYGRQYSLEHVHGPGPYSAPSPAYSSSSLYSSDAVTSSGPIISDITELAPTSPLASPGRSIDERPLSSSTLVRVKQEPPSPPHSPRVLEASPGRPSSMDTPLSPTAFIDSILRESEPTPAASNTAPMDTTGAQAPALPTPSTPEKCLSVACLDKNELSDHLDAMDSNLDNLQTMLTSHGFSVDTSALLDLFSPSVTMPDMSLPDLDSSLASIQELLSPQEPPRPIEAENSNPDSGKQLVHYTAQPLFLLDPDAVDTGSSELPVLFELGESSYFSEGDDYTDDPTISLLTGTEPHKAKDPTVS

[17] = Luminescence Cell-Based Dose Confirmation HTS to Identify Activators of 5'UTR Stem-Loop Driven Alpha-Synuclein mRNA Translation in H4 Neuroglioblastoma Cells. [Related pubchem assays: 1829 (Project Summary), 1814 (Primary HTS)]; format: functional
[18] = Luminescence Cell-Based Dose Response HTS to Identify Activators of Luciferase Translation or Activity in H4 […] Cells. [Related pubchem assays: 1829 (Project Summary), 1814 (Primary HTS)]; format: functional
[19] = test system: H4; assay: Luminescence Cell-Based Dose Response HTS to Identify Activators of 5'UTR Stem-Loop Driven Prion Protein mRNA Translation in H4 Neuroglioblastoma Cells. [Related pubchem assays: 1829 (Project Summary), 1814 (Primary HTS)]; format: functional; conditions: Homo sapiens
[20] = luciferase reporter signal suppression in cells – H4 neuroglioma cells, luminescence, dose response (AID 1990); format: functional, cell-based
[21] = Luminescence Cell-Based Dose Response HTS to Identify Inhibitors of 5'UTR Stem-Loop Driven Prion Protein mRNA Translation in H4 Neuroglioblastoma Cells. [Related pubchem assays: 1827 (Project Summary), 1813 (Primary HTS)]; format: functional
[22] = alpha-synuclein stem-loop luciferase translation blockers – H4 neuroglioma cells, luminescence, confirmation (AID 1988); format: functional, cell-based
[23] = target: Cytochrome P450 3A4 (Homo sapiens, UniProt P08684);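 also: CYP3A4 tested as one member of a cytochrome P450 panel screen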
Cytochrome P450 3A4, sequence (P08684 whole entry): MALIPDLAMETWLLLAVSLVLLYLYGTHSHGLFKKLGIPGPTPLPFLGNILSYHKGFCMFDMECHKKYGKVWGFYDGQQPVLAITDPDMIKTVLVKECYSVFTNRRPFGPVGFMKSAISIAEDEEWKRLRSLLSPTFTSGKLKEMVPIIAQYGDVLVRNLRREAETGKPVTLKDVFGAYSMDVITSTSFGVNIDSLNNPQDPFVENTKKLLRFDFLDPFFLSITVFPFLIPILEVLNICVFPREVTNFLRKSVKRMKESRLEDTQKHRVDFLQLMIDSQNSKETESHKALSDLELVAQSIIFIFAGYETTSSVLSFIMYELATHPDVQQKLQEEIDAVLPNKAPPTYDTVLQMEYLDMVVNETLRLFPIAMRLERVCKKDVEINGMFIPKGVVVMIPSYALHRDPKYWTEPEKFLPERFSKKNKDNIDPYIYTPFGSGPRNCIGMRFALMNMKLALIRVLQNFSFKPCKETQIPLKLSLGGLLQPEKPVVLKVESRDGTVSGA

FAD-linked sulfhydryl oxidase ALR, sequence (P55789 whole entry, the tested form may be a part): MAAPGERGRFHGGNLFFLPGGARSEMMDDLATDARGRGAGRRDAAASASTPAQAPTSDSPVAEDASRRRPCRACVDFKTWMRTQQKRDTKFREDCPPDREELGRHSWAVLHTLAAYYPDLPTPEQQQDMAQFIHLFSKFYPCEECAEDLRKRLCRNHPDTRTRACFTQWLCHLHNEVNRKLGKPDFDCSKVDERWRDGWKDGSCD
Cytochrome P450 2C9, sequence (P11712 whole entry): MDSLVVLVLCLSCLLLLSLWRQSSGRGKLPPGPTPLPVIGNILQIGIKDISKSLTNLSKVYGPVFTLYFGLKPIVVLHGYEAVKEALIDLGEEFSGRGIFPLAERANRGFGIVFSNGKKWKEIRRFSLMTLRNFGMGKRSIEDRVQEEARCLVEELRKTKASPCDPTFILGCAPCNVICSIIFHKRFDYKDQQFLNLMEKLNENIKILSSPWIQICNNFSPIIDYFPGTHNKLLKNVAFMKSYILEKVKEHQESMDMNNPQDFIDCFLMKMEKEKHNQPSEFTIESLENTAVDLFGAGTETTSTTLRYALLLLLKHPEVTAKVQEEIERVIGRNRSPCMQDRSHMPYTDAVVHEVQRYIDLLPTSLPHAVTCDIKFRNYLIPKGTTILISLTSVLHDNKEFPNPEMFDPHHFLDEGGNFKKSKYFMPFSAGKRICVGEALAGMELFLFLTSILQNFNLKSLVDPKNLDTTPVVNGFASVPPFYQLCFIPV
Cytochrome P450 2C19, sequence (P33261 whole entry): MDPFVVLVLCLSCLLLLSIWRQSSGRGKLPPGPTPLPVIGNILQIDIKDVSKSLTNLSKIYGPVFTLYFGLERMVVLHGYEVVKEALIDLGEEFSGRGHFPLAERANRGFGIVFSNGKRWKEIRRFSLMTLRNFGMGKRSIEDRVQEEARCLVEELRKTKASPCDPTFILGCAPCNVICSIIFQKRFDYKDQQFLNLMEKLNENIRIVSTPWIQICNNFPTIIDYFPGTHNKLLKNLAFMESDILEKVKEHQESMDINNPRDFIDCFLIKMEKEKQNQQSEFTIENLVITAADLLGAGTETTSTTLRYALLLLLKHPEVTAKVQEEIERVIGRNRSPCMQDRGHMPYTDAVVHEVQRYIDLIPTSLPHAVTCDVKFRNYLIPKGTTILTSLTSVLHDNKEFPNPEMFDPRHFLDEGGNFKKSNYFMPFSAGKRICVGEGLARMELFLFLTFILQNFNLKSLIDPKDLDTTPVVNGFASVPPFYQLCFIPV
Cytochrome P450 2D6, sequence (P10635 whole entry): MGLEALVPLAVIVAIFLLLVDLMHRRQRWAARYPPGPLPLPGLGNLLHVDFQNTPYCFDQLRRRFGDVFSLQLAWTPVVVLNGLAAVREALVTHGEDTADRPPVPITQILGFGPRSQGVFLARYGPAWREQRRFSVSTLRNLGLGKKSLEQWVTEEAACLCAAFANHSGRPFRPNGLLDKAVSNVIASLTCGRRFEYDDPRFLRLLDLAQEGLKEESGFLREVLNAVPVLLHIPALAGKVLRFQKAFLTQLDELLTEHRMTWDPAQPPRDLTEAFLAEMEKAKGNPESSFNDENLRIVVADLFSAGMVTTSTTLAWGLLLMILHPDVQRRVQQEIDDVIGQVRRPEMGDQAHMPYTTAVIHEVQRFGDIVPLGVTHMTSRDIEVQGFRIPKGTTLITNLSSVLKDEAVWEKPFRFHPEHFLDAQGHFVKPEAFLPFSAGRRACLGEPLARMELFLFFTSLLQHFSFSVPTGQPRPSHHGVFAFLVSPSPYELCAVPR
T4 sequence (P11940 whole entry, the tested form may be a part): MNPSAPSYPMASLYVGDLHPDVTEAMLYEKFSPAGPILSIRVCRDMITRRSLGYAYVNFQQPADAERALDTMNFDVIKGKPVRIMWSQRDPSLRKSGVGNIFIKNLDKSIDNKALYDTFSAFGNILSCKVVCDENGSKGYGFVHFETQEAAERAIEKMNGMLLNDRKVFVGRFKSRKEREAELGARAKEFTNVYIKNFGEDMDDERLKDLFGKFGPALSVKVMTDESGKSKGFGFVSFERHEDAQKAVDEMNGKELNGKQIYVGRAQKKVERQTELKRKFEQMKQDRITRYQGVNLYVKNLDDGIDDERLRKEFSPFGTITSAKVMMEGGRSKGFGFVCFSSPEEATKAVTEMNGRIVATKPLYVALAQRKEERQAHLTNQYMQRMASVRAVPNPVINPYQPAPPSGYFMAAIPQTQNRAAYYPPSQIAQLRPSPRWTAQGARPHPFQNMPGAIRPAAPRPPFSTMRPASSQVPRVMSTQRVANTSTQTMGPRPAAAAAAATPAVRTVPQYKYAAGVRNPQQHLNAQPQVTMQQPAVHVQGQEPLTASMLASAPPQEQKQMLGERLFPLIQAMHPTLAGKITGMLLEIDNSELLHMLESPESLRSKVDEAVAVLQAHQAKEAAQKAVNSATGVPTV

## Nc1cc(C(=O)O)ccc1Nc1ccc(F)c(F)c1
[1]
  AC50: 0.345 µM (active)

## COC(=O)c1ccc(NC(=O)c2ccc(CN3CCOCC3)cc2)cc1
[2]
  AC50: 43.4 µM (active)

## CCCCCc1ccc(S(=O)(=O)NCCc2ccncc2)cc1
[3]
  CC50: 12.1 µM (active)

## CCC(c1nnnn1CC1CCCO1)N(CCN1CCOCC1)Cc1cc2cc(C)ccc2nc1O (centres undefined)
[4]
  AC50: 25.1 µM (inconclusive)

## COc1c(O)cccc1[C@H](O)C1CCN(CCc2ccc(F)cc2)CC1
[5]
  EC50: 14.4 µM (active)
[6]
  EC50: 13.7 µM (active)
[7]
  IC50: > 66 µM (inactive)
[8]
  IC50: 36.9 µM (inactive)

## C[C@@H]1CN([C@@H](C)CO)C(=O)c2cc(C3=CCCC3)cnc2O[C@@H]1CN(C)Cc1ccc(C(=O)O)cc1
[2]
  AC50: 10.9 µM (active)

## Cc1c(C(=O)N2CCCCCC2)nnn1-c1nonc1N
[9]
  AC50: 17.8 µM (inconclusive)
[4]
  AC50: 15.8 µM (inconclusive)
[10]
  AC50: 14.1 µM (inconclusive)

## COC(=O)[C@H](C)[C@H]1C[C@]1(C)[C@H](NC(=O)OCc1ccccc1)c1ccccc1
[4]
  AC50: 15.8 µM (inconclusive)

## COc1cccc(NC(=O)c2ccc(Cn3cc([N+](=O)[O-])cn3)o2)c1
[11]
  IC50: 18.5 µM (active)

## CC(C)c1nnc(NC(=O)c2cc3cc(Br)ccc3oc2=O)s1
[11]
  IC50: 0.66 µM (active)

## COc1ccc(CNC(=O)c2cc3cccc(O)c3oc2=N)cc1
[11]
  IC50: 47.8 µM (active)

## CCN(CC)CCN(Cc1cc2ccc(C)c(C)c2nc1O)C(S)=NCc1ccco1
[12]
  CC50: > 50 µM (active)
[5]
  EC50: > 300 µM (not active)
[6]
  EC50: > 300 µM (not active)

## CCc1cc(-c2nnc(S)n2-c2cccc(C)c2)cs1
[1]
  AC50: 3.65 µM (active)

## O=C(c1cnn2c(C(F)F)cc(-c3ccccc3)nc12)N1CCc2ccccc2C1
[3]
  CC50: > 40 µM (active)

## CC#CCCCC(=O)Nc1ccc(C(=O)O)cc1
[13]
  AC50: inconclusive
[4]
  AC50: 28.2 µM (inconclusive)
[10]
  AC50: 39.8 µM (inconclusive)

## Oc1ccccc1CN1CCCC(N2CCN(c3cccc(C(F)(F)F)c3)CC2)C1 (centres undefined)
[11]
  IC50: 22.9 µM (active)

## CC1(C)CCC(C)(C)c2cc(C(=O)Nc3ccc(C(=O)O)cc3)ccc21
[13]; read-out: AC50
  AC50: 31.6 µM (inconclusive)
[4]
  AC50: 31.6 µM (inconclusive)
[10]
  AC50: 15.8 µM (inconclusive)

## CC1(C)Nc2ccccc2N(Cc2ccc([N+](=O)[O-])cc2)C1=O
[1]
  AC50: 3.92 µM (active)

## O=C(Nc1cc(Oc2ccccc2)cc([N+](=O)[O-])c1)C12CC3CC(C1)CC(n1cnc(Cl)n1)(C3)C2
[14]
  EC50: 1.51 µM (active)
[3]
  CC50: > 40 µM (active)
[15]
  EC50: > 60 µM (not active)

## COc1cc(/C=N/Nc2nc(O)nnc2C)cc([N+](=O)[O-])c1O
[5]
  EC50: 7.98 µM (active)
[6]
  EC50: 10.8 µM (inconclusive)

## O=C(Oc1ccccc1)c1cccc(COC(=O)c2cnccn2)c1
[11]
  IC50: 6.99 µM (active)

## CN1C(=O)C(=Cc2cn(CC(=O)N3CCCC3)c3ccccc23)C(=O)N(C)C1=O
[5]
  EC50: > 300 µM (not active)
[6]
  EC50: > 300 µM (not active)

## COC(=O)[C@@]1(Cc2ccc(F)cc2)[C@H]2c3cc(C(=O)N(C)C)n(CCc4c[nH]c5ccc(OC)cc45)c3C[C@H]2CN1C(=O)c1ccccc1
[13]; read-out: AC50
  AC50: 39.8 µM (inconclusive)
[4]
  AC50: 12.6 µM (inconclusive)

## Sc1nnc(-c2ccc(Cl)cc2)n1-c1ccc(Cl)cc1
[1]
  AC50: 4.74 µM (active)

## SC1=Nc2ccc(Cl)cc2C(c2ccccc2)=NC1
[16]
  EC50: > 260 µM (inactive)
[11]
  IC50: > 50 µM (active)

## CN(C)C(=O)c1ccc(-c2nc(NCc3cccnc3)c3ccccc3n2)cc1
[9]
  AC50: 39.8 µM (inconclusive)
[4]
  AC50: 10 µM (inconclusive)

## Cc1cc(C)n(C(=O)c2ccc([N+](=O)[O-])cc2[N+](=O)[O-])n1
[11]
  IC50: 43.6 µM (active)

## COc1ccc2[nH]cc(CCNc3ncnc4ccc(-c5ccccc5CN(C)C)cc34)c2c1
[4]
  AC50: 31.6 µM (inconclusive)

## CN1CCN(Cn2cc(/C=C/C(=O)c3ccccc3)c3ccccc32)CC1
[17]
  EC50: 0.233 µM (active)
[18]
  EC50: 0.148 µM (active)
[19]
  EC50: 18.9 µM (active)
[3]
  CC50: > 40 µM (active)

## OCC/N=C1\CCCc2c1[nH]c1ccc(Br)cc21
[20]
  EC50: < 0.1 µM (active)
[21]
  EC50: 48.8 µM (active)
[22]
  EC50: 8.41 µM (active)
[9]
  AC50: 1 µM (inconclusive)
[4]
  AC50: 0.251 µM (inconclusive)
[10]
  AC50: 7.08 µM (inconclusive)

## O=C(Nc1cccc(-c2cn3ccccc3n2)c1)c1ccccc1
[1]
  AC50: 2.89 µM (active)

## CCN(CC)C(=O)Cn1cc(C(=O)C(=O)N2CCc3ccccc32)c2ccccc21
[5]
  EC50: > 300 µM (not active)
[6]
  EC50: > 300 µM (not active)

## O=C(CCNC(=O)Cn1cnc2ccccc2c1=O)NCC1COc2ccccc2O1 (centres undefined)
[4]
  AC50: 0.01 µM (inconclusive)

## COc1cccc(Cn2c(=O)c(-c3cn(C)c4ccccc34)nc3cnc(N4CCNCC4)nc32)c1
[9]
  AC50: 39.8 µM (inconclusive)
[4]
  AC50: 15.8 µM (inconclusive)
[23]
  AC50: 15.8 µM (inconclusive)

## COc1ccc(CCSc2nnc(C3CCCCC3)n2N)cc1
[1]
  AC50: 2.81 µM (active)
